Results reported in patent publication EP1027880A2, “Use of quaternary ammonium compounds as antiperspirants” (Beiersdorf Aktiengesellschaft, priority 1999, dated 2000).
Where “and” joins values, the source holds several entries; their conditions need not be identical. Equal values may be shown once.

Test system: Schweißsekretion
Assay: Imprint method: sweat reduction on the inner forearm after topical application for several days, sauna sweating, silicone imprint with image analysis
Assay type: in vivo, menschlichen Probanden
Description: Der Nachweis der Wirksamkeit wurde an menschlichen Probanden mit Hilfe der sogenannten "Imprintmethode" geführt. Bei dieser Methode wird das zu untersuchende Material am Unterarm innen mehrere Tage hintereinander (topisch) angewendet, sodann begeben sich die Probanden in die Sauna zum Schwitzen. An der Untersuchungsstelle wird eine Silikonmasse aufgetragen, die während der Schwitzphase aushärtet. An den Stellen, an denen Schweisströpfchen austreten, bilden sich Abdrücke in der Silikonmasse, welche bildanalytisch ausgewertet werden können. Nach diesem Verfahren wurden zunächst die Wirkstoffe in wäßriger Lösung untersucht und sodann entsprechende kosmetische Zubereitungen.
Es wurden wässrige Lösungen aus Mecetroniumethylsulfat (MES) hergestellt und an 15 Probanden die Schweissreduktion mit Hilfe der Imprint-Methode am inneren Unterarm geprüft. Zum Vergleich wurde eine 10 %ige Aluminiumchlorhydrat-Lösung verwendet

For `CCCCCCCCCCCCCCCC[N+](C)(C)CC` [MES, N-Hexadecyl-N-ethyl-N,N-dimethylammoniumethylsulfat], the “Reduktion der Schweißsekretion” value (in vivo) was 93% and 95%.
Aluminiumchlorhydrat was tested, and the “Reduktion der Schweißsekretion” value (10 %ige comparison solution, 15 Probanden, inner forearm) was 93%.
